Experimental data reported in paper PMC8288134, “Synthesis, potential antitumor activity, cell cycle analysis, and multitarget mechanisms of novel hydrazones incorporating a 4-methylsulfonylbenzene scaffold: a molecular docking study” (Journal of Enzyme Inhibition and Medicinal Chemistry, 2021).
Read-outs that look alike come from different tables or passages of the source.

Key:
MOLT-4 = tested on: MOLT-4; design: method as in https://dtp.cancer.gov/dtpstandard/dwindex/index.jsp; settings: reference drugs, ref https://dtp.cancer.gov/dtpstandard/dwindex/index.jsp; cited from earlier work
PRMI-8226 = tested on: PRMI-8226; design: method as in https://dtp.cancer.gov/dtpstandard/dwindex/index.jsp; settings: reference drugs, ref https://dtp.cancer.gov/dtpstandard/dwindex/index.jsp; cited from earlier work
A549/ATCC [1] = tested on: A549/ATCC; design: method as in https://dtp.cancer.gov/dtpstandard/dwindex/index.jsp; settings: reference drugs, ref https://dtp.cancer.gov/dtpstandard/dwindex/index.jsp; cited from earlier work
HCT-15 = tested on: HCT-15; design: method as in https://dtp.cancer.gov/dtpstandard/dwindex/index.jsp; settings: reference drugs, ref https://dtp.cancer.gov/dtpstandard/dwindex/index.jsp; cited from earlier work
SW-620 = tested on: SW-620; design: method as in https://dtp.cancer.gov/dtpstandard/dwindex/index.jsp; settings: reference drugs, ref https://dtp.cancer.gov/dtpstandard/dwindex/index.jsp; cited from earlier work
SF-295 [2] = tested on: SF-295; design: method as in https://dtp.cancer.gov/dtpstandard/dwindex/index.jsp; settings: reference drugs, ref https://dtp.cancer.gov/dtpstandard/dwindex/index.jsp; cited from earlier work
SK-MEL-5 [3] = tested on: SK-MEL-5; design: method as in https://dtp.cancer.gov/dtpstandard/dwindex/index.jsp; settings: reference drugs, ref https://dtp.cancer.gov/dtpstandard/dwindex/index.jsp; cited from earlier work
UACC-62 = tested on: UACC-62; design: method as in https://dtp.cancer.gov/dtpstandard/dwindex/index.jsp; settings: reference drugs, ref https://dtp.cancer.gov/dtpstandard/dwindex/index.jsp; cited from earlier work
SK-OV-3 [4] = tested on: SK-OV-3; design: method as in https://dtp.cancer.gov/dtpstandard/dwindex/index.jsp; settings: reference drugs, ref https://dtp.cancer.gov/dtpstandard/dwindex/index.jsp; cited from earlier work
786-0 = tested on: 786-0; design: method as in https://dtp.cancer.gov/dtpstandard/dwindex/index.jsp; settings: reference drugs, ref https://dtp.cancer.gov/dtpstandard/dwindex/index.jsp; cited from earlier work
A498 = tested on: A498; design: method as in https://dtp.cancer.gov/dtpstandard/dwindex/index.jsp; settings: reference drugs, ref https://dtp.cancer.gov/dtpstandard/dwindex/index.jsp; cited from earlier work
PC-3 = tested on: PC-3; design: method as in https://dtp.cancer.gov/dtpstandard/dwindex/index.jsp; settings: reference drugs, ref https://dtp.cancer.gov/dtpstandard/dwindex/index.jsp; cited from earlier work
T-47D = tested on: T-47D; design: method as in https://dtp.cancer.gov/dtpstandard/dwindex/index.jsp; settings: reference drugs, ref https://dtp.cancer.gov/dtpstandard/dwindex/index.jsp; cited from earlier work
[5] = tested on: ovarian cancer tumour cell lines; settings: cited from earlier work; for GI50: read-out: GI50 (subpanel average), reference drugs, ref https://dtp.cancer.gov/dtpstandard/dwindex/index.jsp; for CC50: read-out: LC50 (subpanel average), reference drugs, ref https://dtp.cancer.gov/dtpstandard/dwindex/index.jsp; for TGI (subpanel average): reference drugs, ref https://dtp.cancer.gov/dtpstandard/dwindex/index.jsp
K-562 = experiment: NCI antitumor screen (SRB); assay type: cell-based; settings: Homo sapiens, K562, K-562
A549/ATCC [6] = experiment: NCI antitumor screen (SRB); assay type: cell-based; settings: Homo sapiens
HOP-62 = experiment: NCI antitumor screen (SRB); assay type: cell-based; settings: Homo sapiens, HOP-62
NCI-H226 = experiment: NCI antitumor screen (SRB); assay type: cell-based; settings: Homo sapiens
NCI-H23 = experiment: NCI antitumor screen (SRB); assay type: cell-based; settings: Homo sapiens
NCI-H522 = experiment: NCI antitumor screen (SRB); assay type: cell-based; settings: Homo sapiens, NCI-H522
HT29 = experiment: NCI antitumor screen (SRB); assay type: cell-based; settings: Homo sapiens
SF-295 [7] = experiment: NCI antitumor screen (SRB); assay type: cell-based; settings: Homo sapiens
U251 = experiment: NCI antitumor screen (SRB); assay type: cell-based; settings: Homo sapiens
LOX IMVI = experiment: NCI antitumor screen (SRB); assay type: cell-based; settings: Homo sapiens
MDA-MB-435 = experiment: NCI antitumor screen (SRB); assay type: cell-based; settings: Homo sapiens
SK-MEL-5 [8] = experiment: NCI antitumor screen (SRB); assay type: cell-based, human
UACC-257 = experiment: NCI antitumor screen (SRB); assay type: cell-based, human
NCI/ADR-RES = experiment: NCI antitumor screen (SRB); assay type: cell-based; settings: Homo sapiens
SK-OV-3 [9] = experiment: NCI antitumor screen (SRB); assay type: cell-based; settings: Homo sapiens
DU-145 = experiment: NCI antitumor screen (SRB); assay type: cell-based; settings: Homo sapiens
BT-549 = experiment: NCI antitumor screen (SRB); assay type: cell-based; settings: Homo sapiens
MDA-MB-468 = experiment: NCI antitumor screen (SRB); assay type: cell-based; settings: Homo sapiens
HL60 cells = experiment: Cell cycle analysis (PI, flow cytometry); assay type: cell-based, human; settings: HL60, 10.0 µM, 24 h
Experimental: Antitumor agents can induce apoptosis by activating signalling pathways, leading to G2/M phase arrest[73]^,[74]. Flow cytometry is used to measure cell growth in different cell cycle phases (pre-G1, G1, S, and G2/M)[73]^,[74]. […]. We used the solvent DMSO as a negative control. Briefly, we incubated HL60 cells with 10 µM compounds 6, 9, 16, and 20 for 24 h. Compounds 6, 9, 16, and 20 interfered with the normal cell cycle of HL60 cells. […] […].
Cell cycle analysis was carried out similar to our previous report using the Leukaemia HL-60 cell line stained with the DNA fluorochrome PI and analysed by FACSCalibur flow cytometer[40]^,[74].
Using a method similar to that of our previous report, cell cycle analysis was carried out using Leukemia HL-60 cell line, stained with the DNA fluorochrome PI, and analyzed by FACSCalibur flow cytometer. Leukemia HL-60 cell was seeded at a density of 2 × 10^5 cells/well and incubated for 24 h in six-well plates. Fetal bovine serum (10%) was added, and the cells were incubated at 37°C in an atmosphere of 5% CO2. The medium was replaced with 1% (v/v) dimethyl sulfoxide (DMSO), containing 10.0 μM of compound 9. […]
Afterward, […]
the samples were analyzed using a FACSCalibur flow cytometer. […]
(AA) to PGH2. […]

[10] = five concentrations 0.01-100 µM
[11] = one dose 10 µM, read-out: Growth inhibition percentage (GI%)

Cc1ccc(-c2cc(C(F)(F)F)nn2-c2ccc(S(N)(=O)=O)cc2)cc1 [Celecoxib, celecoxib]
GI50 (MOLT-4): 15.8 µM | GI50 (PRMI-8226): 3.98 µM | GI50 (A549/ATCC [1]): 15.8 µM | GI50 (HCT-15): 15.8 µM | GI50 (SW-620): 15.8 µM | GI50 (SF-295 [2]): 15.8 µM | GI50 (SK-MEL-5 [3]): 15.8 µM | GI50 (UACC-62): 15.8 µM | GI50 (SK-OV-3 [4]): 19.9 µM | GI50 (786-0): 39.8 µM | GI50 (A498): 15.8 µM | GI50 (PC-3): 12.6 µM | GI50 (T-47D): 15.8 µM | GI50 [5]: 17.1 µM | CC50 [5]: 65.9 µM | TGI (subpanel average) [5]: 34.20 µM

CCN(CC)c1ccc(/C=N/NC(=O)c2ccc(S(C)(=O)=O)cc2)c(O)c1 [Compound 20]
GI50 (K-562; [10]): 0.604 µM | inhibition at 10 µM (K-562; [11]): 87.6% | GI50 (A549/ATCC [6]; [10]): 0.402 µM | inhibition at 10 µM (A549/ATCC [6]; [11]): 87.5% | GI50 (HOP-62; [10]): 0.085 µM | inhibition at 10 µM (HOP-62; [11]): 87.1% | GI50 (NCI-H226; [10]): 0.073 µM | inhibition at 10 µM (NCI-H226; [11]): 77.4% | GI50 (NCI-H23; [10]): 0.446 µM | inhibition at 10 µM (NCI-H23; [11]): 67.2% | GI50 (NCI-H522; [10]): 0.395 µM | inhibition at 10 µM (NCI-H522; [11]): 90.1% | GI50 (HT29; HT-29, five concentrations 0.01-100 µM): 0.297 µM | inhibition at 10 µM (HT29; HT-29, one dose 10 µM, read-out: Growth inhibition percentage (GI%)): 78.2% | GI50 (SF-295 [7]; [10]): 0.2 µM | inhibition at 10 µM (SF-295 [7]; [11]): 78.6% | GI50 (U251; U-251, five concentrations 0.01-100 µM): 0.137 µM | inhibition at 10 µM (U251; U-251, one dose 10 µM, read-out: Growth inhibition percentage (GI%)): 79.4% | GI50 (LOX IMVI; [10]): 0.0997 µM | inhibition at 10 µM (LOX IMVI; [11]): 90.3% | GI50 (MDA-MB-435; [10]): 0.623 µM | inhibition at 10 µM (MDA-MB-435; [11]): 62.8% | inhibition at 10 µM (SK-MEL-5 [8]; Homo sapiens, SK-MEL-5, SK-MEL-5, one dose 10 µM, read-out: Growth inhibition percentage (GI%)): 100% | GI50 (SK-MEL-5 [8]; Homo sapiens, SK-MEL-5, five concentrations 0.01-100 µM): 0.223 µM | Growth inhibition percentage (GI%) (SK-MEL-5 [8]; SK-MEL-5, one dose 10 µM): >100% | inhibition at 10 µM (UACC-257; Homo sapiens, UACC-257, UACC-257, one dose 10 µM, read-out: Growth inhibition percentage (GI%)): 100% | GI50 (UACC-257; Homo sapiens, UACC-257, five concentrations 0.01-100 µM): 0.34 µM | Growth inhibition percentage (GI%) (UACC-257; UACC-257, one dose 10 µM): >100% | GI50 (NCI/ADR-RES; [10]): 0.324 µM | inhibition at 10 µM (NCI/ADR-RES; [11]): 82.2% | GI50 (SK-OV-3 [9]; [10]): 0.251 µM | inhibition at 10 µM (SK-OV-3 [9]; [11]): 61% | GI50 (DU-145; [10]): 0.144 µM | inhibition at 10 µM (DU-145; [11]): 75.5% | GI50 (BT-549; [10]): 0.346 µM | inhibition at 10 µM (BT-549; [11]): 69.3% | GI50 (MDA-MB-468; [10]): 0.203 µM | inhibition at 10 µM (MDA-MB-468; [11]): 98.8% | %G0-G1 (HL60 cells): 36.28% | %G2-M (HL60 cells): 34.29% | %Pre-G1 (HL60 cells): 24.31% | %S (HL60 cells): 29.43%

C#Cc1cccc(Nc2ncnc3cc(OCCOC)c(OCCOC)cc23)c1 [Erlotinib, erlotinib]
GI50 (MOLT-4): 25.1 µM | GI50 (PRMI-8226): 25.1 µM | GI50 (A549/ATCC [1]): 10 µM | GI50 (HCT-15): 3.98 µM | GI50 (SW-620): 79.4 µM | GI50 (SF-295 [2]): 15.8 µM | GI50 (UACC-62): 3.16 µM | GI50 (SK-OV-3 [4]): 0.5 µM | GI50 (786-0): 10 µM | GI50 (A498): 2.51 µM | GI50 (PC-3): 39.8 µM | GI50 (T-47D): 3.98 µM | GI50 [5]: 5.52 µM | CC50 [5]: 97.1 µM | TGI (subpanel average) [5]: 74.41 µM

COc1cc2ncnc(Nc3ccc(F)c(Cl)c3)c2cc1OCCCN1CCOCC1 [Gefitinib, gefitinib]
GI50 (MOLT-4): 2 µM | GI50 (A549/ATCC [1]): 2.51 µM | GI50 (HCT-15): 3.98 µM | GI50 (SF-295 [2]): 10 µM | GI50 (SK-MEL-5 [3]): 3.16 µM | GI50 (UACC-62): 2 µM | GI50 (SK-OV-3 [4]): 1 µM | GI50 (786-0): 3.16 µM | GI50 (T-47D): 7.94 µM | GI50 [5]: 3.05 µM | TGI (subpanel average) [5]: 33.29 µM

CNC(=O)c1cc(Oc2ccc(NC(=O)Nc3ccc(Cl)c(C(F)(F)F)c3)cc2)ccn1 [Sorafenib, sorafenib]
GI50 (MOLT-4): 3.16 µM | GI50 (A549/ATCC [1]): 3.16 µM | GI50 (HCT-15): 2.51 µM | GI50 (SW-620): 2.51 µM | GI50 (SK-OV-3 [4]): 2.51 µM | GI50 (786-0): 3.16 µM | GI50 (A498): 2.51 µM | GI50 (PC-3): 1.99 µM | GI50 [5]: 2.89 µM | CC50 [5]: 71.3 µM | TGI (subpanel average) [5]: 14.43 µM

CS(=O)(=O)c1ccc(C(=O)Nc2ccc(Cl)c(-c3ccccn3)c2)c(Cl)c1 [Vismodegib, vismodegib]
GI50 (MOLT-4): 31.6 µM | GI50 (PRMI-8226): 31.6 µM | GI50 (A549/ATCC [1]): 39.8 µM | GI50 (HCT-15): 31.6 µM | GI50 (SW-620): 63.1 µM | GI50 (SF-295 [2]): 31.6 µM | GI50 (SK-MEL-5 [3]): 25.1 µM | GI50 (UACC-62): 31.6 µM | GI50 (A498): 31.6 µM | GI50 (PC-3): 25.1 µM | GI50 (T-47D): 31.6 µM
